The test system of data set [1] is extensor tonic convulsions. Briefly: Electroshock induced convulsion inhibition assay (E.S.). The class given is in vivo, mice (Cox standard strain albino male). The following applies: Mus musculus, 1 h; oral dose (gavage); mice; 60 min after administration; 0.1 second, 50 milliampere electroshock through corneal electrodes; inhibition of extensor tonic convulsions in half of the animals. An excerpt: The compounds of Formula I are anticonvulsant agents with a high therapeutic ratio and long half-life and are therefore useful in the treatment and prevention of convulsions in mammals. In particular, the compounds are effective against tonic extensor seizures elicited by maximal electroshock and should therefore be useful for treating generalized tonic-clonic ("grand mal"), cortical focal, complex partial (temporal lobe epilepsy), simple partial (focal motor), and post-traumaticseizures in humans. […] In the electroshock induced convulsion inhibition assay (E.S.), the compound to be tested was dissolved in water (5% --sufficient hydrochloric acid was added for those compounds which were not isolated as a salt in order to effect dissolution) and administered by gavage to each of ten Cox standard strain albino male mice (18-24 g) at the dose level being investigated. Sixty minutes after compound administration, the mice were subjected to a 0.1 second, 50 milliampere electroshock through corneal electrodes. The animals were examined and evaluated immediately after the electroshock for the occurrence of clonic, flexor tonic, or extensor tonic convulsions, or death and the ED50 was determined for each compound as the dose which inhibited the occurrence of extensor tonic convulsions in one half of the animals immediately after the electroshock. For comparison, 18 milliamperes was usually sufficient to produce extensor tonic convulsions in about half of the control animals; at 50 milliamperes, almost all control animals (receiving vehicle only) died.

For another data set, the system named is seizures. The conditions noted are these: man, cited from earlier work.

Each structure is given as a SMILES string.

On to `Cl.Nc1ccc(C(=O)NC2CCCc3ccccc32)cc1` (stereo not shown) [Example 7, 4-amino-N-(1,2,3,4-tetrahydro-1-naphthalenyl)benzamide hydrochloride], for which, in data set [1], the ED50 (as a rule, the dose that gives a 50% effect, or the effect in half of the subjects) was found to be 44.5 mg/kg.

`Nc1ccc(C(=O)NC2CCc3ccccc32)cc1` (stereo not shown) [Example 8, 4-Amino-N-(2,3-dihydro-1H-inden-1-yl)benzamide]: it took a dose of 31 mg/kg to reach the 50% effect level in data set [1] (ED50).

In data set [1], `C[C@H](NC(=O)c1ccc(N)cc1)c1cccc2ccccc12.Cl` [Example 9, (S)-4-amino-N-[1-(1-naphthalenyl)ethyl]benzamide hydrochloride] displayed an ED50 of 110 mg/kg.

Regarding `Nc1ccc(C(=O)Nc2cccc3c2CCCC3)cc1` [Example 10, 4-Amino-N-(5,6,7,8-tetrahydro-1-naphthalenyl)benzamide], in data set [1], the ED50 is 100 mg/kg.

For `Cl.Nc1ccc(C(=O)Nc2cccc3ccccc23)cc1` [Example 11, 4-Amino-N-1-naphthalenylbenzamide hydrochloride], in data set [1], the 50% effect level (ED50) was put at a dose of 62 mg/kg.

The compound `Nc1ccc(C(=O)Nc2ccc3ccccc3c2)cc1` [Example 12, 4-Amino-N-2-naphthalenylbenzamide] showed an ED50 in data set [1] greater than 200 mg/kg.

Consider `O=C1NC(=O)C(c2ccccc2)(c2ccccc2)N1` [phenytoin], for which the “plasma level at which ataxia is obvious” value in the data set on seizures (ataxia) was 30000 ng/mL. In addition, the “plasma level at which lethargy is apparent” value in the data set with seizures (lethargy) is on record as “about 40 mcg/ml”. For the same compound, the “plasma level at which nystagmus is seen” value in the data set with seizures (nystagmus) is on record as “around 20 mcg/ml”. Besides, the “plasma level at which seizures are controlled” value in the data set with seizures is no less than 10 µg/mL.

The values are drawn from patent US4632939A, “Anticonvulsant agents” (Eli Lilly and Company, priority 1985, dated 1986).
